# Experimental data: publication PMC5951806, “Rapid labelling and covalent inhibition of intracellular native proteins using ligand-directed N-acyl-N-alkyl sulfonamide” (Nature Communications, 2018)
# Target: T1, citrate synthase, mitochondrial (CS) (Homo sapiens, UniProt O75390)
# T1 sequence (O75390 28-466): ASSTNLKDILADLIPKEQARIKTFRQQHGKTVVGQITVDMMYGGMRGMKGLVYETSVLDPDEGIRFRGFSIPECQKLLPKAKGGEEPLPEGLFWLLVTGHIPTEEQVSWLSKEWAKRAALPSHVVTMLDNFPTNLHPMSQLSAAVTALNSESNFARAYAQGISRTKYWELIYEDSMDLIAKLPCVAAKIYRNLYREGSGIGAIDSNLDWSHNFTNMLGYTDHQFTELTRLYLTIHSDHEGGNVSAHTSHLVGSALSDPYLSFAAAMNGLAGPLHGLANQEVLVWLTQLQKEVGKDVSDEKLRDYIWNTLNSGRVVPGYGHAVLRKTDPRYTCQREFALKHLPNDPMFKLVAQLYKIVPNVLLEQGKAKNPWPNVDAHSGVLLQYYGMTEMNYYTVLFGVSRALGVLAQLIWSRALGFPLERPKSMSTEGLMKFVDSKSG
# Assay: TMT LC-MSMS of 11-labelled proteins
# Assay type: cell-based
smiles,measurement,setting,value
CC(=O)Oc1ccc2c(c1)Oc1cc(OC(C)=O)ccc1C21OC(=O)c2cc(C(=O)NCCOCCOCCNC(=O)CCCC(=O)N(CC#N)S(=O)(=O)c3ccc(C(=O)NCCCn4c(Sc5cc6c(cc5I)OCO6)nc5c(N)ncnc54)cc3)ccc21 [compound 11],Abundance Ratio: (11) / (11 with PU-H71),"sheet Exp2, CS",0.812
same,Abundance Ratio: (11) / (DMSO),"sheet Exp2, CS",1.581
same,Abundances (Grouped): 11,"sheet Exp2, CS",26.4
same,Abundances (Grouped): 11 with PU-H71,"sheet Exp2, CS, with PU-H71",32.5
same,Abundance Ratio: (11) / (DMSO),"sheet Merged, SKBR3 cells, 11 0.5 µM 3 h vs DMSO",1.555
same,Abundance Ratio: (11) / (11 with PU-H71),"sheet Merged, SKBR3 cells, 11 0.5 µM 3 h vs with PU-H71 10 µM",0.796
